Results published in US20120295907A1, “INSECTICIDAL COMPOUNDS” (SYNGENTA CROP PROTECTION, LLC, priority 2009, published 2012).

Experiments:
Assay type in all cases: in vivo
Myzus persicae = Myzus persicae (Green Peach Aphid) sunflower leaf disc spray test; details: foliar, 144 h, 200 ppm spray on sunflower leaf discs, aphid population of mixed ages, 6 DAT, mortality
Spodoptera littoralis = Spodoptera littoralis (Egyptian Cotton Leafworm) cotton leaf disc spray test; details: foliar, 72 h, 200 ppm spray on cotton leaf discs, L1 larvae, mortality, feeding behavior, growth regulation 3 DAT
Tetranychus urticae = Tetranychus urticae (Two-Spotted Spider Mite) bean leaf disc spray test; details: foliar, 192 h, 200 ppm spray on bean leaf discs, mite populations of mixed ages, 8 days, egg, larval and adult mortality, read-out: control of Tetranychus urticae
Plutella xylostella = Plutella xylostella (Diamond Back Moth) artificial diet MTP test; details: 144 h, 200 ppm (concentration in well 18 ppm), L2 larvae, 6 days, larval mortality, growth regulation
Diabrotica balteata = Diabrotica balteata (Corn Root Worm) artificial diet MTP test; details: 120 h, 200 ppm (concentration in well 18 ppm), L2 larvae, 5 days, larval mortality, growth regulation
Heliothis virescens = Heliothis virescens (Tobacco Budworm) egg test on artificial diet; details: 96 h, 200 ppm (concentration in well 18 ppm), eggs 0-24 h old on artificial diet, 4 days, egg mortality, larval mortality, growth regulation
Thrips tabaci = Thrips tabaci (Onion Thrips) sunflower leaf disc spray test; details: foliar, 168 h, 200 ppm spray on sunflower leaf discs, population of mixed ages, 7 days, mortality

Measured: pest or weed control at 200 ppm

COc1c(NC(=O)c2ccc(F)cc2Cl)cccc1C(=O)Nc1c(Cl)cc(C(F)(C(F)(F)F)C(F)(F)F)cc1Br [G5]
not listed: Thrips tabaci
≥ 80%: all other assays above

COc1c(NC(=O)c2csnc2C)cccc1C(=O)Nc1c(Cl)cc(C(F)(C(F)(F)F)C(F)(F)C(F)(F)F)cc1Br (centres unmarked) [B98]
not listed: Thrips tabaci
≥ 80%: all other assays above

COc1c(NC(=O)c2ccc(OC(F)(F)F)cc2)cccc1C(=O)Nc1c(Cl)cc(C(F)(C(F)(F)F)C(F)(F)F)cc1Cl [E11]
not listed: Tetranychus urticae
≥ 80%: all other assays above

COc1c(NC(=O)c2ccc(C#N)cc2)cccc1C(=O)Nc1c(Cl)cc(C(F)(C(F)(F)F)C(F)(F)C(F)(F)F)cc1Br (centres unmarked) [B6]
not listed: Diabrotica balteata | Thrips tabaci
≥ 80%: all other assays above

COc1cc(C(=O)Nc2cccc(C(=O)Nc3c(Cl)cc(C(F)(C(F)(F)F)C(F)(F)C(F)(F)F)cc3Br)c2OC)on1 (centres unmarked) [B89]
not listed: Tetranychus urticae
≥ 80%: all other assays above

COc1c(NC(=O)c2ccc(C)s2)cccc1C(=O)Nc1c(Cl)cc(C(F)(C(F)(F)F)C(F)(F)C(F)(F)F)cc1Br (centres unmarked) [B137]
not listed: Tetranychus urticae
≥ 80%: all other assays above

COc1c(NC(=O)c2c(F)cc(F)cc2F)cccc1C(=O)Nc1c(Cl)cc(C(F)(C(F)(F)F)C(F)(F)C(F)(F)F)cc1Br (centres unmarked) [B189, N-{3-[2-Bromo-6-chloro-4-(1,2,2,3,3,3-hexafluoro-1-trifluoromethylpropyl)-phenylcarbamoyl]-2-methoxyphenyl}-2,4,6-trifluorobenzamide]
not listed: Diabrotica balteata | Thrips tabaci
≥ 80%: all other assays above

COc1c(NC(=O)c2cccnc2)cccc1C(=O)Nc1c(Cl)cc(C(F)(C(F)(F)F)C(F)(F)C(F)(F)F)cc1Br (centres unmarked) [B37]
not listed: Tetranychus urticae | Heliothis virescens
≥ 80%: all other assays above

COc1c(NC(=O)c2ccc(F)cc2)cccc1C(=O)Nc1c(Cl)cc(C(F)(C(F)(F)F)C(F)(F)C(F)(F)F)cc1Br (centres unmarked) [B19]
not listed: Diabrotica balteata | Thrips tabaci
≥ 80%: all other assays above

COc1c(NC(=O)c2ccccc2)cccc1C(=O)Nc1c(Cl)cc(C(F)(C(F)(F)F)C(F)(F)F)cc1Cl [E16]
not listed: Tetranychus urticae
≥ 80%: all other assays above

COc1c(NC(=O)c2ccc(F)cc2Cl)cccc1C(=O)Nc1c(Cl)cc(C(F)(C(F)(F)F)C(F)(F)C(F)(F)F)cc1Br (centres unmarked) [B2, N-[2-bromo-6-chloro-4-(1,2,2,3,3,3-hexafluoro-1-trifluoromethylpropyl)phenyl]-3-(4-fluoro-2-chlorobenzoylamino)-2-methoxybenzamide]
not listed: Diabrotica balteata | Thrips tabaci
≥ 80%: all other assays above

COCc1cc(C(F)(C(F)(F)F)C(F)(F)C(F)(F)F)cc(Cl)c1NC(=O)c1cccc(NC(=O)c2ccc(F)cc2Cl)c1OC (centres unmarked) [H25]
not listed: Spodoptera littoralis | Tetranychus urticae
≥ 80%: all other assays above

COc1c(NC(=O)c2ccc(C)cc2)cccc1C(=O)Nc1c(Cl)cc(C(F)(C(F)(F)F)C(F)(F)C(F)(F)F)cc1Br (centres unmarked) [B8]
not listed: Diabrotica balteata | Thrips tabaci
≥ 80%: all other assays above

COc1c(NC(=O)c2cccnc2SC)cccc1C(=O)Nc1c(Cl)cc(C(F)(C(F)(F)F)C(F)(F)C(F)(F)F)cc1Br (centres unmarked) [B45]
not listed: Tetranychus urticae
≥ 80%: all other assays above

COc1c(NC(=O)c2c(F)cc(C#N)cc2F)cccc1C(=O)Nc1c(Cl)cc(C(F)(C(F)(F)F)C(F)(F)F)cc1Br [G4]
not listed: Thrips tabaci
≥ 80%: all other assays above

COc1c(NC(=O)c2ccc([N+](=O)[O-])cc2)cccc1C(=O)Nc1c(Cl)cc(C(F)(C(F)(F)F)C(F)(F)C(F)(F)F)cc1Br (centres unmarked) [B7]
not listed: Diabrotica balteata | Thrips tabaci
≥ 80%: all other assays above

COc1c(NC(=O)c2ccc(F)cc2Cl)cccc1C(=O)Nc1c(Cl)cc(C(F)(C(F)(F)F)C(F)(F)C(F)(F)F)cc1Cl (centres unmarked) [C1, N-[2,6-dichloro-4-(1,2,2,3,3,3-hexafluoro-1-trifluoromethylpropyl)phenyl]-3-(4-fluoro-2-chlorobenzoylamino)-2-methoxybenzamide]
not listed: Tetranychus urticae
≥ 80%: all other assays above

COc1c(NC(=O)c2ccccc2Cl)cccc1C(=O)Nc1c(Cl)cc(C(F)(C(F)(F)F)C(F)(F)C(F)(F)F)cc1Br (centres unmarked) [B5]
not listed: Thrips tabaci
≥ 80%: all other assays above

COc1c(NC(=O)c2ccc(C(F)(F)F)cc2)cccc1C(=O)Nc1c(Cl)cc(C(F)(C(F)(F)F)C(F)(F)C(F)(F)F)cc1Br (centres unmarked) [B15]
not listed: Diabrotica balteata | Thrips tabaci
≥ 80%: all other assays above

COc1c(NC(=O)c2ccc(C)cc2)cccc1C(=O)Nc1c(Cl)cc(C(F)(C(F)(F)F)C(F)(F)F)cc1Cl [E6]
not listed: Tetranychus urticae
≥ 80%: all other assays above

COCc1cc(C(F)(C(F)(F)F)C(F)(F)C(F)(F)F)cc(Br)c1NC(=O)c1cccc(NC(=O)c2ccc(F)cc2Cl)c1OC (centres unmarked) [I25]
not listed: Spodoptera littoralis | Tetranychus urticae
≥ 80%: all other assays above

COc1c(NC(=O)c2c(F)cc(F)cc2F)cccc1C(=O)Nc1c(Cl)cc(C(F)(C(F)(F)F)C(F)(F)F)cc1Br [G3]
not listed: Thrips tabaci
≥ 80%: all other assays above

COc1c(NC(=O)c2ccccc2C)cccc1C(=O)Nc1c(Cl)cc(C(F)(C(F)(F)F)C(F)(F)F)cc1Cl [E2]
not listed: Tetranychus urticae | Plutella xylostella
≥ 80%: all other assays above

COc1c(NC(=O)c2ccccc2F)cccc1C(=O)Nc1c(Cl)cc(C(F)(C(F)(F)F)C(F)(F)F)cc1Cl [E1]
not listed: Tetranychus urticae | Plutella xylostella
≥ 80%: all other assays above

COc1c(NC(=O)c2cccs2)cccc1C(=O)Nc1c(Cl)cc(C(F)(C(F)(F)F)C(F)(F)C(F)(F)F)cc1Br (centres unmarked) [B44]
not listed: Tetranychus urticae
≥ 80%: all other assays above

COc1c(NC(=O)c2cccc(F)c2F)cccc1C(=O)Nc1c(Cl)cc(C(F)(C(F)(F)F)C(F)(F)F)cc1Cl [E21]
not listed: Tetranychus urticae
≥ 80%: all other assays above

COCc1cc(C(F)(C(F)(F)F)C(F)(F)C(F)(F)F)cc(Br)c1NC(=O)c1cccc(NC(=O)c2c(F)cc(F)cc2F)c1OC (centres unmarked) [I2]
not listed: Spodoptera littoralis | Tetranychus urticae
≥ 80%: all other assays above
